# Measurements from paper PMC11349956 (EJNMMI Radiopharmacy and Chemistry, 2024).
# Where a name gives a salt, the structure may show the parent alone.
# Legend:
# DAT = DAT (Rattus norvegicus, UniProt P23977); type: in vivo; conditions: GBR12909 12.5 mg/kg i.p. 15 min before LBT-999 0.02 mg/kg i.v.
# [1] = rat striatum, 18F-LBT-999, ref Sérrière et al. [2014]; cited from earlier work
# Chain of DAT (P23977 whole entry): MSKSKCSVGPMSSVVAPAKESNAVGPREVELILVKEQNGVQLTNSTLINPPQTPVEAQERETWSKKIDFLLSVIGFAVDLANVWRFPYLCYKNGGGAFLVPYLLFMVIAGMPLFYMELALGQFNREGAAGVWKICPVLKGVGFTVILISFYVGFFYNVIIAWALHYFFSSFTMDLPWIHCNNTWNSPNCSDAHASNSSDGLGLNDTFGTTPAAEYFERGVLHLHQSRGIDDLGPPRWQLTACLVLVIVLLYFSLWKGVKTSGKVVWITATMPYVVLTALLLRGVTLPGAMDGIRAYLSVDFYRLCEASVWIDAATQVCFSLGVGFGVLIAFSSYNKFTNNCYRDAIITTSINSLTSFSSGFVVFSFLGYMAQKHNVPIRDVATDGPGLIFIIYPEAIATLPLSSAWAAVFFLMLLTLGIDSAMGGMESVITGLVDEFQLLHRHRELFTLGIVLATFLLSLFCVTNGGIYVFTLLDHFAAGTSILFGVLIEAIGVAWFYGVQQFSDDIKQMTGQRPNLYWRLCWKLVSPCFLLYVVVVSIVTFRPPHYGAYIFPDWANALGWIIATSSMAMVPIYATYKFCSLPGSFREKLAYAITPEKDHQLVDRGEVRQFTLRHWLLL
SMILES,effect on brain binding of LBT-999 (DAT),average percentage of injected doses in the striatum derived from PET studies [1] [%]
"Fc1ccc(C(OCCN2CCN(CCCc3ccccc3)CC2)c2ccc(F)cc2)cc1 [GBR 12909, 1-(2-bis(4-fluorophenyl)methoxy)ethyl)-4-(3-phenylpropyl)piperazine hydrochloride]",prevented any binding of LBT-999,–
COC(=O)[C@H]1[C@@H](c2ccc(C)cc2)C[C@@H]2CC[C@H]1N2C/C=C/C[18F] [18F-LBT-999],–,2.17 ± 0.42
